Tests used:
Test in all cases: relative viability (nuclei count vs DMSO), 5 days (fraction); higher = more cells survive
[1] = compound: C[C@@]1(C(=O)Nc2ccc(F)nc2)CCCN1c1nc(Nc2cc(C3CC3)n[nH]2)c2cccn2n1 + Nc1ncn([C@H]2C[C@H](O)[C@@H](CO)O2)c(=O)n1 [Decitabine] (partner 2 µM)
How it was run: (§1)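 Relative viability divides the nuclei count in treated wells by that in vehicle wells. Lung cancer cell lines were seeded in 1536-well plates, dosed by pin tool the next day, and fixed and stained after 5 days in one step with final 0.05% Triton X-100, 1% formaldehyde and 1 ug/ml Hoechst. Dosing was a single drug or a fixed anchor-drug dose plus five library-drug doses (not always all listed) in √10 steps, and values are medians of duplicate plates imaged at 4×.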

Motesanib + Luminespib = compound: CC1(C)CNc2cc(NC(=O)c3cccnc3NCc3ccncc3)ccc21 [Motesanib] + CCNC(=O)c1noc(-c2cc(C(C)C)c(O)cc2O)c1-c1ccc(CN2CCOCC2)cc1 [Luminespib] (partner 0.01 µM)
How it was run: as §1

[2] = compound: C[C@@]1(C(=O)Nc2ccc(F)nc2)CCCN1c1nc(Nc2cc(C3CC3)n[nH]2)c2cccn2n1 + C[C@]1(O)C[C@@H](c2nc(-c3ccc4ccc(-c5ccccc5)nc4c3)c3c(N)nccn32)C1 [Linsitinib] (partner 1 µM)
How it was run: as §1

[3] = compound: C[C@@]1(C(=O)Nc2ccc(F)nc2)CCCN1c1nc(Nc2cc(C3CC3)n[nH]2)c2cccn2n1 + CC(=O)Nc1cccc(-n2c(=O)n(C3CC3)c(=O)c3c(Nc4ccc(I)cc4F)n(C)c(=O)c(C)c32)c1 [Trametinib] (partner 0.02 µM)
How it was run: as §1

Row | Cell Line | relative viability ([1]; first compound 0.04 µM) | relative viability ([1]; first compound 0.1265 µM) | relative viability ([1]; first compound 0.4 µM) | relative viability ([1]; first compound 1.265 µM) | relative viability (Motesanib + Luminespib; first compound 0.01 µM) | relative viability (Motesanib + Luminespib; first compound 0.03162 µM) | relative viability (Motesanib + Luminespib; first compound 0.1 µM) | relative viability (Motesanib + Luminespib; first compound 0.3162 µM) | relative viability (Motesanib + Luminespib; first compound 1 µM) | relative viability ([2]; first compound 0.04 µM) | relative viability ([2]; first compound 0.1265 µM) | relative viability ([2]; first compound 0.4 µM) | relative viability ([2]; first compound 1.265 µM) | relative viability ([3]; first compound 0.04 µM) | relative viability ([3]; first compound 0.1265 µM) | relative viability ([3]; first compound 0.4 µM) | relative viability ([3]; first compound 1.265 µM)
1 | NCI-H520 | 0.498 | 0.493 | 0.416 | 0.491 | 0.22 | 0.276 | 0.27 | 0.196 | 0.242 | 0.951 | 0.867 | 0.915 | 1.07 | 0.753 | 0.571 | 0.523 | 0.591
2 | NCI-H596 | 1.08 | 0.977 | 0.96 | 0.912 | 1.17 | 0.917 | 1.07 | 0.988 | 0.871 | 0.954 | 1.02 | 0.939 | 1.18 | 0.912 | 0.72 | 0.654 | 0.748
3 | NCI-H647 | 0.504 | 0.312 | 0.368 | 0.421 | 0.122 | 0.144 | 0.387 | 0.165 | 0.216 | 1.17 | 1.2 | 0.952 | 1.26 | 0.465 | 0.419 | 0.383 | 0.397
4 | NCI-H650 | 0.291 | 0.311 | 0.305 | 0.29 | 0.788 |  | 0.81 | 0.837 | 0.801 | 1.19 | 0.706 | 0.804 | 0.721 | 0.867 | 0.572 | 0.743 | 0.611
5 | NCI-H661 | 0.528 | 0.514 | 0.54 | 0.547 | 0.912 | 0.968 | 0.948 | 0.952 | 0.901 | 0.63 | 0.809 | 0.571 | 0.545 | 0.605 | 0.55 | 0.591 | 0.555
6 | NCI-H727 | 0.8 | 0.636 | 0.529 | 0.362 | 0.292 | 0.261 | 0.729 | 0.332 | 0.352 | 0.349 | 0.135 | 0.232 | 0.283 | 0.312 | 0.283 | 0.267 | 0.221
7 | NCI-H838 | 0.461 | 0.467 | 0.395 | 0.335 | 0.316 | 0.295 | 0.355 | 0.286 | 0.216 | 1.09 | 0.848 | 0.753 | 0.874 | 0.496 | 0.46 | 0.346 | 0.36
8 | NCI-H1355 | 0.388 | 0.313 | 0.337 | 0.352 | 0.719 | 0.659 | 0.658 | 0.77 | 0.637 | 0.815 | 0.882 | 0.727 | 0.887 | 0.36 | 0.302 | 0.289 | 0.346
9 | NCI-H1395 | 0.7 | 0.705 | 0.653 | 0.68 | 0.662 | 0.665 | 0.65 | 0.876 | 0.866 | 1.3 | 0.737 | 1.01 | 0.947 | 1.02 | 0.863 | 0.901 | 0.989
10 | NCI-H1437 | 0.553 | 0.517 | 0.521 | 0.432 | 1.13 | 1.07 | 1.08 | 1.1 | 1.15 | 0.935 | 0.833 | 0.671 | 0.843 | 0.404 | 0.3 | 0.277 | 0.277
11 | NCI-H1651 | 0.567 | 0.527 | 0.565 | 0.45 | 0.673 | 0.89 | 0.8 | 0.921 | 0.892 | 1.04 | 0.898 | 0.984 | 1.12 | 0.723 | 0.798 | 0.712 | 0.757
12 | NCI-H1666 | 0.66 | 0.644 | 0.587 | 0.492 | 1.05 | 0.978 | 0.991 | 0.999 | 0.977 | 0.89 | 0.87 | 0.753 | 0.831 | 0.826 | 0.688 | 0.697 | 0.755
13 | NCI-H1734 | 0.456 | 0.389 | 0.405 | 0.437 | 0.161 | 0.188 |  | 0.199 | 0.201 | 0.771 | 0.722 | 0.794 | 0.903 | 0.527 | 0.512 | 0.403 | 0.563
14 | NCI-H1755 | 0.698 | 0.687 | 0.704 | 0.74 | 0.492 | 0.505 | 0.353 | 0.445 | 0.315 | 1.01 | 0.954 | 0.895 | 1.04 | 0.661 | 0.692 | 0.734 | 0.744
15 | NCI-H1792 | 0.401 | 0.235 | 0.249 | 0.304 | 0.447 | 0.428 | 0.406 | 0.501 | 0.466 | 0.654 | 0.596 | 0.503 | 0.713 | 0.343 | 0.188 | 0.145 | 0.211
16 | NCI-H1793 | 0.362 | 0.428 | 0.429 | 0.429 | 0.26 | 0.196 | 0.199 | 0.463 | 0.182 | 0.863 | 0.961 | 0.573 | 0.992 | 0.4 | 0.355 | 0.392 | 0.459
17 | NCI-H1915 | 0.266 | 0.278 | 0.251 | 0.258 | 0.765 | 0.745 | 0.764 | 0.826 | 0.754 | 1.08 | 1.08 | 1.08 | 1.16 | 0.316 | 0.261 | 0.272 | 0.338

Source: the supplement of paper PMC10307832
